Experimental data reported in PMC11847706, “Deep learning enhances the prediction of HLA class I-presented CD8^+ T cell epitopes in foreign pathogens” (Nature Machine Intelligence, 2025).

How the values were obtained:
PBMCs = assay: Ex vivo IFNγ ELISpot assay; type: cell-based, human; conditions: for Effector CD8^+ T cell responses across multiple individuals: ex vivo IFNγ ELISpot, HLA-A*02:01-restricted, Fig. 6c
Description: IFNγ ELISpot assays were performed according to the manufacturer’s instructions (Mabtech). PBMCs were incubated with individual peptides from EBV at a final concentration of 0.5 μg ml^−1 for 16–18 h. Positive controls were anti-human CD3 (Clone OKT3, BioLegend, 0.5 μg ml^−1) and anti-human CD28 (Clone CD28.2, BioLegend, 0.5 μg ml^−1) antibodies. The number of spot-forming units in the highest-value DMSO control well was subtracted from each experimental well. Responses were considered positive if both replicates had greater than or equal to five spot-forming units per well above background.

CD8^+ T cells = assay: Ex vivo proliferation assay (CellTrace Far Red); type: cell-based, human; conditions: HLA-A*02:01-restricted, Fig. 6d
Description: PBMCs were suspended at 1 × 10^6 cells per ml in 1 μM CellTrace Far Red dye (ThermoFisher) in PBS and incubated at 37 °C for 20 min. Cells were protected from light and mixed every 5 min during the incubation. RPMI supplemented with 10% fetal bovine serum was added to quench the reaction for 5 min, followed by centrifugation at 1,500 rpm for 3 min before resuspension in culture media. Cells were plated into 96-well U-bottom plates (Corning) (200,000 cells per well in 200 μl of culture media) and incubated with individual EBV peptides at a concentration of 0.5 μg ml^−1 for 5 days. Cells were washed with PBS supplemented with 2% fetal bovine serum and stained with anti-human CD3-BUV395 (Clone UCHT1, BD Biosciences, 1:100 dilution), anti-human CD4-PE-Cy7 (Clone OKT4, BioLegend, 1:100 dilution), anti-human CD8-BV605 (Clone SK1, BioLegend, 1:100 dilution) and live/dead violet viability dye (Life Technologies). Cells were washed and fixed in 2% paraformaldehyde and flow cytometric analysis was performed on a BD LSR Fortessa (BD Biosciences).

| Sequence | Immunogenicity (T cell reactivity) (PBMCs; HLA-A*02:01, 15mer, LMP2A: 71-85) | Memory CD8^+ T cell responses across multiple individuals (CD8^+ T cells) | Effector CD8^+ T cell responses across multiple individuals (PBMCs) |
| --- | --- | --- | --- |
| HSDYQPLGTQDQSLY | immunogenic |  |  |
| SIIPRTPDV [A*02-SV9] |  | capable of eliciting | capable of eliciting |
| YVLDHLIVV [A*02-YV9] |  | capable of eliciting | capable of eliciting |
